The values that follow come from PMC12084297, “Cytoplasmic connexin43-microtubule interactions promote glioblastoma stem-like cell maintenance and tumorigenicity” (Cell Death & Disease, 2025).

Test [1] has as its system newly diagnosed GBM patients. As to conditions: surgical resection, radiotherapy, and chemotherapy with temozolomide, ref [1]-[3]; cited from earlier work. An excerpt:
Glioblastoma (GBM) is a highly malignant and lethal cancer of the central nervous system. The current multimodal therapy for newly diagnosed GBM patients includes surgical resection, radiotherapy, and chemotherapy with temozolomide (TMZ), conferring a median survival of only 14.6 months, with recent results from phase 3 clinical trials showing an extension up to 20 months, although using more stringent inclusion criteria that limit generalizability.

Another test concerns VTC-034 GSCs. The test is described as follows: Caspase 3/7 activity, VTC-034 GSCs. It counts as cell-based, human. As to conditions: VTC-034 adherent GSCs, 10, 50 or 100 μM, 48 h, Caspase-Glo 3/7. The procedure: (§1) Cells were plated in 96-well plates (2000–5000 cells per well) and treated the following day with TMZ (10, 50, or 100 μM), antennapedia, JM2-scrambled, or JM2 (10, 50, or 100 μM). After 4 days, cell viability was monitored following addition of MTS reagent (Promega) according to manufacturer’s instructions. The absorbance at 490 nm was measured using a SpectraMax i3 or iD3 microplate reader (Molecular Devices). For the caspase 3/7 activity assay, cells were plated in 96-well plates (2000 cells per well) and treated with TMZ or peptides as described above. The activity of caspase 3/7 was measured after 48 h using the Caspase-Glo® 3/7 assay (Promega) following the manufacturer’s instructions. Fold change of caspase 3/7 activity was defined as the ratio of caspase 3/7 luminescence in treated cells compared to controls.

A further test relates to VTC-001 GSCs. The test is described as follows: MTS viability, VTC-001 GSCs. It counts as cell-based, human. As to conditions: VTC-001 adherent GSCs, TMZ 50 μM, 4 days. The procedure: as §1
In the next test the test system is VTC-037 GSCs. The test is described as follows: MTS viability, VTC-037 GSCs. It counts as cell-based, human. As to conditions: VTC-037 adherent GSCs, TMZ 50 μM, 4 days. The method, then: as §1

Structures are written as SMILES.

Take `Cn1nnc2c(C(N)=O)ncn2c1=O` [TMZ, temozolomide, reference compound]: in test [1], the Median survival is reported as 14.6 months. For the same compound, in the test on VTC-034 GSCs, the “Apoptosis induction (caspase 3/7 activity)” value is on record as “inefficient in inducing apoptosis”. The “GSC viability with TMZ alone (MTS)” value in the test on VTC-001 GSCs and in the test with VTC-037 GSCs was “resistant to TMZ treatment” each time.
